Active and inactive are the calls of the source. The calls are words filed in the database; no cut-off is given here.
Key:
A2780 [1] = assay: Inhibition of Pgp-mediated drug efflux in human A2780 cells overexpressing Pgp assessed as increase in intracellular adriamycin level at 5 uM after 40 mins by flow cytometry analysis; assay type: cell-based
A2780 [2] = assay: Inhibition of Pgp-mediated drug efflux in adriamycin-resistant human A2780 cells assessed as increase in intracellular adriamycin level at 5 uM after 40 mins by flow cytometry analysis; assay type: cell-based
[3] = Cellular uptake in adriamycin-resistant human A2780 cells plasma membrane at 5 uM after 5 mins by confocal microscopic analysis; assay type: ADME, cell-based; settings: a2780, 5 min
A2780 [4] = assay: Inhibition of Pgp-mediated drug efflux in adriamycin-resistant human A2780 cells assessed as increase in adriamycin uptake at 5 uM after 1 hr by flow cytometry analysis; assay type: cell-based
A2780 [5] = assay: Inhibition of Pgp-mediated drug efflux in adriamycin-resistant human A2780 cells assessed as increase in adriamycin uptake at 5 uM after 8 hrs by flow cytometry analysis; assay type: cell-based
A2780 [6] = assay: Inhibition of Pgp-mediated drug efflux in adriamycin-resistant human A2780 cells assessed as increase in adriamycin-induced cytotoxicity at 5 uM after 1 hr by CCK-8 assay; assay type: cell-based
A2780 [7] = assay: Inhibition of Pgp-mediated drug efflux in adriamycin-resistant human A2780 cells assessed as increase in adriamycin-induced cytotoxicity at 5 uM after 8 hrs by CCK-8 assay; assay type: cell-based
A2780 [8] = assay: Cellular uptake in adriamycin-resistant human A2780 cells at 20 uM after 5 mins by confocal microscopic analysis; assay type: ADME, cell-based; settings: a2780, 5 min
A2780 [9] = assay: Inhibition of Pgp-mediated drug efflux in adriamycin-resistant human A2780 cells assessed as increase in intracellular actinomycin level at 5 uM after 40 mins by flow cytometry analysis; assay type: cell-based
[10] = Cellular uptake in adriamycin-resistant human A2780 cell plasma membrane at 5 uM after 40 mins by confocal microscopic analysis; assay type: ADME, cell-based; settings: a2780, 40 min
[11] = Cellular uptake in adriamycin-resistant human A2780 cell mitochondria at 5 uM after 40 mins by confocal microscopic analysis; assay type: ADME; settings: a2780, 40 min
[12] = Cellular uptake in wild type human A2780 cell mitochondria at 5 uM after 40 mins by confocal microscopic analysis; assay type: ADME; settings: a2780, 40 min
[13] = target: ATP-dependent translocase ABCB1 (Homo sapiens, UniProt P08183); assay: Inhibition of p-glycoprotein in adriamycin-resistant human A2780 cell at 5 uM after 40 mins by confocal microscopic analysis; settings: a2780, 40 min
Sequence of ATP-dependent translocase ABCB1 (P08183 whole entry): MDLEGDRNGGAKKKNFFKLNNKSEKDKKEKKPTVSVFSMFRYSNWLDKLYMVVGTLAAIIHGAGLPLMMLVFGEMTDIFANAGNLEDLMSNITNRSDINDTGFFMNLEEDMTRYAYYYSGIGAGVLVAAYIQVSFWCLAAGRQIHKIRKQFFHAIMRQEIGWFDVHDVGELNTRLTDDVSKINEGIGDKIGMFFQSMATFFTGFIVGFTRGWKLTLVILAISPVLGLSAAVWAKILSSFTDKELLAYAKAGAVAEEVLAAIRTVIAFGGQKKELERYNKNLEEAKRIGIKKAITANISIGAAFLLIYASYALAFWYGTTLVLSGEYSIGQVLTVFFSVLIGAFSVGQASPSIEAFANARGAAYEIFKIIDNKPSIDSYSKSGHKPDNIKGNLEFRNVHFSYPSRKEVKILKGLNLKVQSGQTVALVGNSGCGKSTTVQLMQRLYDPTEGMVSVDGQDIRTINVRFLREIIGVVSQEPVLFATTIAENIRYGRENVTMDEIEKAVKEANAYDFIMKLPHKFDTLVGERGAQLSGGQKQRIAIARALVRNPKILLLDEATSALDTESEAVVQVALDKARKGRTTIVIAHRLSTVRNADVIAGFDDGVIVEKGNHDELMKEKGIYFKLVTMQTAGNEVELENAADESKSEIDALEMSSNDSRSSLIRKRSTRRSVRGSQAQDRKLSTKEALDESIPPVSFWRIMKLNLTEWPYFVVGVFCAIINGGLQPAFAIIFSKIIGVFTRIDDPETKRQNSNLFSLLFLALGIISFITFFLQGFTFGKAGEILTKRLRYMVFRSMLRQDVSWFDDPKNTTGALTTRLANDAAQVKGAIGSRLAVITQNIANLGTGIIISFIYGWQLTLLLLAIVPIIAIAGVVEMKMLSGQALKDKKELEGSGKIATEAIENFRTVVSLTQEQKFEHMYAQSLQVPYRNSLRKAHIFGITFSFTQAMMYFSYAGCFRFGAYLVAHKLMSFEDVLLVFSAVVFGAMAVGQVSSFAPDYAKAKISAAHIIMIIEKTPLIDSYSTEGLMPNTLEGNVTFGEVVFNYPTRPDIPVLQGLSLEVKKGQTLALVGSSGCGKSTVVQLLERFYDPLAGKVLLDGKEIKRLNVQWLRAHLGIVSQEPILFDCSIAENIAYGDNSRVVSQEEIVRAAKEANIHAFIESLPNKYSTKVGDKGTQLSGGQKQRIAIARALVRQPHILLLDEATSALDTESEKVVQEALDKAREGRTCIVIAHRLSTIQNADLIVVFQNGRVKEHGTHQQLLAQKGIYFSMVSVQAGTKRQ

A2780 [14] = assay: Inhibition of Pgp-mediated drug efflux in adriamycin-resistant human A2780 cells assessed as increase of MitoTracker accumulation at 5 uM after 5 mins by confocal microscopic analysis; assay type: cell-based
A2780 [15] = assay: Inhibition of Pgp-mediated drug efflux in adriamycin-resistant human A2780 cells assessed as localization of MitoTracker from plasma membrane to intracellular sites at 5 uM after 5 mins by confocal microscopic analysis; assay type: cell-based
A2780 [16] = assay: Inhibition of Pgp-mediated drug efflux in adriamycin-resistant human A2780 cells assessed as localization of adriamycin from plasma membrane to intracellular sites at 5 uM after 5 mins by confocal microscopic analysis; assay type: cell-based
A2780 [17] = assay: Inhibition of Pgp in adriamycin-resistant human A2780 cells assessed as co-immunoprecipitation with biotin-Fxr3kCbl at 5 uM after 1 hr by immunoblotting analysis; assay type: cell-based

Structure (SMILES) | inhibition (A2780 [1]) | inhibition (A2780 [2]) | Drug uptake [3] | inhibition (A2780 [4]) | inhibition (A2780 [5]) | inhibition (A2780 [6]) [%] | inhibition (A2780 [7]) [%] | further results
O=C(O)CCCc1ccc(N(CCCl)CCCl)cc1 | inactive | – | – | – | – | – | – | –
CN1/C(=C\c2cc[n+](CCCCCC(=O)N[C@@H](Cc3ccncc3)C(=O)N[C@H](CCCNC(=N)N)C(=O)N[C@@H](Cc3ccncc3)C(=O)N[C@H](CCCNC(=N)N)C(=O)N[C@@H](Cc3ccncc3)C(=O)N[C@H](CCCNC(=N)N)C(=O)N[C@H](CCCCNC(=O)CCCc3ccc(N(CCCl)CCCl)cc3)C(N)=O)c3ccccc23)Sc2ccccc21 | – | Active | Active | Active | inactive | 50 | 50 | –
CN1/C(=C\c2cc[n+](CCCCCC(=O)N[C@@H](Cc3ccccc3)C(=O)N[C@H](CCCNC(=N)N)C(=O)N[C@@H](Cc3ccccc3)C(=O)N[C@H](CCCNC(=N)N)C(=O)N[C@@H](Cc3ccccc3)C(=O)N[C@H](CCCNC(=N)N)C(=O)N[C@H](CCCCNC(=O)CCCc3ccc(N(CCCl)CCCl)cc3)C(N)=O)c3ccccc23)Sc2ccccc21 | – | Active | Active | Active | inactive | 50 | 50 | –
CN1/C(=C\c2cc[n+](CCCCCC(=O)N[C@@H](CCCNC(=N)N)C(=O)N[C@@H](CCCNC(=N)N)C(=O)N[C@@H](CCCNC(=N)N)C(=O)N[C@@H](CCCNC(=N)N)C(=O)N[C@@H](CCCNC(=N)N)C(=O)N[C@@H](CCCNC(=N)N)C(=O)N[C@H](CCCCNC(=O)CCCc3ccc(N(CCCl)CCCl)cc3)C(N)=O)c3ccccc23)Sc2ccccc21 | – | Active | Not Active | – | – | – | – | Drug uptake (A2780 [8]): Not Active
CN1/C(=C\c2cc[n+](CCCCCC(=O)N[C@@H](CC3CCCCC3)C(=O)N[C@H](CCCNC(=N)N)C(=O)N[C@@H](CC3CCCCC3)C(=O)N[C@H](CCCNC(=N)N)C(=O)N[C@@H](CC3CCCCC3)C(=O)N[C@H](CCCNC(=N)N)C(=O)N[C@H](CCCCNC(=O)CCCc3ccc(N(CCCl)CCCl)cc3)C(N)=O)c3ccccc23)Sc2ccccc21 | – | Active | Active | – | – | – | – | inhibition (A2780 [9]): Active
CN1/C(=C\c2cc[n+](CCCCCC(=O)N[C@@H](CC3CCCCC3)C(=O)N[C@H](CCCNC(=N)N)C(=O)N[C@@H](CC3CCCCC3)C(=O)N[C@H](CCCNC(=N)N)C(=O)N[C@@H](CC3CCCCC3)C(=O)N[C@H](CCCNC(=N)N)C(=O)N[C@@H](CCCCNC(=O)CCCc3ccc(N(CCCl)CCCl)cc3)C(N)=O)c3ccccc23)Sc2ccccc21 | Active | – | – | – | – | – | – | Drug uptake [10]: Active; Drug uptake [11]: Not Active; Drug uptake [12]: Active; inhibition (INH) [13]: Active; inhibition (A2780 [14]): inactive; inhibition (A2780 [15]): Active; inhibition (A2780 [16]): Active; inhibition (A2780 [17]): Active
N=C(N)NCCC[C@@H](NC(=O)[C@H](CC1CCCCC1)NC(=O)[C@@H](CCCNC(=N)N)NC(=O)[C@H](CC1CCCCC1)NC(=O)[C@@H](CCCNC(=N)N)NC(=O)[C@@H](N)CC1CCCCC1)C(=O)N[C@@H](CCCCN)C(N)=O | inactive | – | – | – | – | – | – | –
CN1/C(=C\c2cc[n+](CCCCCC(=O)N[C@@H](Cc3ccc(O)cc3)C(=O)N[C@H](CCCNC(=N)N)C(=O)N[C@@H](Cc3ccc(O)cc3)C(=O)N[C@H](CCCNC(=N)N)C(=O)N[C@@H](Cc3ccc(O)cc3)C(=O)N[C@H](CCCNC(=N)N)C(=O)N[C@H](CCCCNC(=O)CCCc3ccc(N(CCCl)CCCl)cc3)C(N)=O)c3ccccc23)Sc2ccccc21 | – | Active | Not Active | – | – | – | – | Drug uptake (A2780 [8]): Not Active
CN1/C(=C\c2cc[n+](CCCCCC(=O)N[C@@H](CC3CCCCC3)C(=O)N[C@H](CCCCN)C(=O)N[C@@H](CC3CCCCC3)C(=O)N[C@H](CCCCN)C(=O)N[C@@H](CC3CCCCC3)C(=O)N[C@H](CCCCN)C(=O)N[C@H](CCCCNC(=O)CCCc3ccc(N(CCCl)CCCl)cc3)C(N)=O)c3ccccc23)Sc2ccccc21 | – | Active | – | Active | inactive | 50 | 50 | –

— ChEMBL document CHEMBL2203067, “Peptide-chlorambucil conjugates combat pgp-dependent drug efflux” (ACS Med Chem Lett, 2011)
